Test results from US11226337B2, “Chemoproteomic profiling of protein electrophilic and oxidative post-translational modifications” (Zenagem, LLC, priority 2017, dated 2022).

Columns and labels:
[1] = target: T1, GLB1 Betagalactosidase (P16278) (Homo sapiens, UniProt P16278); assay: SILAC RP-ABPP; format: cell-based; conditions: SILAC H/L
T1 construct: shared by both the endogenous and recombinant forms of these proteins; endogenous in cells; host or cells: HEK293T and MDA-MB-231
T1 sequence (P16278 29-677): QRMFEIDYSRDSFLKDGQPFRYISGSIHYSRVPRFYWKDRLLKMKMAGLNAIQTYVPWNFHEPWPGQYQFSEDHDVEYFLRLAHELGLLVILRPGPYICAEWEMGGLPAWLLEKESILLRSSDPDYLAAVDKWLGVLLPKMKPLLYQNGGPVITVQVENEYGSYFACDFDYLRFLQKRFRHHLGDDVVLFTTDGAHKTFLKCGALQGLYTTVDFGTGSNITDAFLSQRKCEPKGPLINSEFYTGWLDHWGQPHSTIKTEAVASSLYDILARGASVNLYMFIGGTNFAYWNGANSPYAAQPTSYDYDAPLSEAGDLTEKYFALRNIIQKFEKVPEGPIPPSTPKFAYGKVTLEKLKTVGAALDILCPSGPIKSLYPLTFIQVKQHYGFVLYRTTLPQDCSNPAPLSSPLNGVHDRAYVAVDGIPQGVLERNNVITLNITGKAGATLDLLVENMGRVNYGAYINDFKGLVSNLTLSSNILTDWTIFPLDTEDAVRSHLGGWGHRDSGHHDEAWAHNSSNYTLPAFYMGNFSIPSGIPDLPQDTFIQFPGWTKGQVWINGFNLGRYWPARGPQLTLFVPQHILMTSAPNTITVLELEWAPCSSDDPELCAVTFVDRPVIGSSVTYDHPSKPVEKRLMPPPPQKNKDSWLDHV

[2] = target: T2, LGALS3BP Galectin3binding protein (Q08380) (Homo sapiens, UniProt Q08380); assay: SILAC RP-ABPP; format: cell-based; conditions: SILAC H/L, MDA-MB-231
T2 construct: In Situ Labelling of Cells with Hydrazine Probes for MS Experiments; endogenous in cells
T2 sequence (Q08380 19-585): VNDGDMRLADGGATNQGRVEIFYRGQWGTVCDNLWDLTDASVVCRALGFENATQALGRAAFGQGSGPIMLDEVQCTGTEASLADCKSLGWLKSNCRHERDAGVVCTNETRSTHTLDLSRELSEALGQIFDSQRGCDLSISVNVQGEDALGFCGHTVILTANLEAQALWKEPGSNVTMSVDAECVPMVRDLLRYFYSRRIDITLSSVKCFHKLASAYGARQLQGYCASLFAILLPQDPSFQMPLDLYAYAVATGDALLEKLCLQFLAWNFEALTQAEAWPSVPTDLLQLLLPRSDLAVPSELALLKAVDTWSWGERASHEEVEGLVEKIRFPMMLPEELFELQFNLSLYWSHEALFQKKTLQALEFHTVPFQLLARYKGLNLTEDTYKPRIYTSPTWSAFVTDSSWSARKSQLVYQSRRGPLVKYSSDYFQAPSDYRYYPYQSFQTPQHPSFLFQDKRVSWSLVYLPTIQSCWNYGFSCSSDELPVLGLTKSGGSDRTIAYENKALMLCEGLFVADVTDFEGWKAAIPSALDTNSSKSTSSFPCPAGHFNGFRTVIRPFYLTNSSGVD

| enrichment ratioavg ([1]; probe 2 1 mM 0.5 h vs probe 4, MDA-MB-231) | competition ratioavg ([1]; probe 2 vs probe 2+10x probe 4, MDA-MB-231) | enrichment ratioavg ([2]; probe 2 1 mM 0.5 h vs probe 4) | competition ratioavg ([2]; probe 2 vs probe 2+10x probe 4) | Structure (SMILES) | enrichment ratioavg ([1]; probe 1 3 mM 0.5 h vs probe 3, HEK293T) | competition ratioavg ([1]; probe 1 vs probe 1+10x probe 3, HEK293T) | enrichment ratioavg ([2]; probe 1 3 mM 0.5 h vs probe 3) | competition ratioavg ([2]; probe 1 vs probe 1+10x probe 3) |
| --- | --- | --- | --- | --- | --- | --- | --- | --- |
| 6 | 2 | 7 | 3 | C#CCCNC(=O)c1ccc(NN)cc1.Cl [probe 2, N-(but-3-yn-1-yl)-4-hydrazinylbenzamide hydrochloride] |  |  |  |  |
|  |  |  |  | C#CCNN.Cl [probe 1, prop-2-yn-1-ylhydrazine hydrochloride] | 12 | 3 | 7 | 3 |
